In one experiment the test system is Staphylococcus aureus. Kind of experiment: Antibacterial activity against Staphylococcus aureus by broth macrodilution method. In kind it is functional, organism-based.
In a further experiment the test system is Escherichia coli. Kind of experiment: Antibacterial activity against Escherichia coli by broth macrodilution method. In kind it is functional, organism-based.
The next experiment relates to HepG2. Kind of experiment: Cytotoxicity against human HepG2 cells after 72 hrs by MTT assay. In kind it is functional, cell-based. The following applies: HepG2, 72 h. A general note: Tetrazolium dyes change colour on reduction, which living cells bring about.
The test system of another experiment is SW1990. The experiment can be described thus: Cytotoxicity against human SW1990 cells after 72 hrs by MTT assay. In kind it is functional, cell-based. The following applies: SW1990, 72 h.

As usually defined, the IC50 is the concentration that inhibits the measured activity by half. Higher therefore signals weaker potency in that assay. In the case of `C/C1=C\[C@@H](O)C/C(C)=C/CC(=O)/C(C)=C/[C@@H]2[C@H](CC1)C2(C)C`, the IC50 in the experiment on Staphylococcus aureus was 17 µM; with Escherichia coli, 17 µM; with HepG2, 61 µM; with SW1990, 37 µM.

The record behind these values is ChEMBL document CHEMBL1154920, “Rare casbane diterpenoids from the Hainan soft coral Sinularia depressa” (J Nat Prod, 2010).
